Patent US20020147177A1, “Formulation of artemisinin” (priority 2001, published 2002)
≈ marks a conversion by molar mass, not a printed value.

Assay: Solubility in water, shaken five days, HPLC
Format: physicochemical
Conditions: thermodynamic from solid, room temperature (25° C.)
Description: […] of each of the complexes and artemisinin crystals were separately shaken in 25 ml of water maintained at room temperature (25° C.) for five days. The solution was then filtered through a 0.2 μu membrane filter and suitably diluted before analysis. An analysis of the drug concentration in the solution was determined by high performance liquid chromatography using a method reported by Chan et al (1997).

- solubility at 5 days: 55.7 ± 1.75 µg/mL (≈ 197 µM)
Structure (SMILES): C[C@@H]1CC[C@H]2[C@@H](C)C(=O)O[C@@H]3O[C@@]4(C)CC[C@@H]1[C@]32OO4 [artemisinin crystals, artemisinin]
